Test results taken from US5296591A, “Trifluoromethylketone derivatives, processes for preparation thereof and use thereof” (Fujisawa Pharmaceutical Co., Ltd., priority 1990, dated 1994).
pIC50: −log10 of the molar value. Where two headings read alike, the source gives them in different places.

Key:
[1] = target: T1, human sputum elastase (HSE) (Homo sapiens, UniProt P08246); assay: Protease inhibition assay (in vitro), human sputum elastase; assay type: biochemical; settings: substrate methoxysuccinyl-(Ala)2-Pro-Val-p-nitroanilide, 30 min, room temperature, pH 7.5
T1 construct: HSE was obtained from Elastin Products Company Inc., Mo., U.S.A; purchased Elastin Products Company Inc; host or cells: human sputum (from the enzyme's name)
T1 sequence (P08246 30-267): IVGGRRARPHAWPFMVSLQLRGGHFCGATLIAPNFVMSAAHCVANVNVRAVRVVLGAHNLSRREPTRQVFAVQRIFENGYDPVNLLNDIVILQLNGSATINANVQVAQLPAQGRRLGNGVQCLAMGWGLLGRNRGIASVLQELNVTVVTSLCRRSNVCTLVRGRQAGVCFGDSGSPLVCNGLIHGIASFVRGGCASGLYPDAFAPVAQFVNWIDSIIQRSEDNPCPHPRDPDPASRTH
Method: (§1) A buffer used throughout the assay was 0.1M HEPES (4-(2-hydroxyethyl)-1-piperazineethanesulfonic acid) containing 0.5M NaCl, pH 7.5. Twenty-five microliters of 2 mM methoxysuccinyl-(Ala)2 -Pro-Val-p-nitroanilide (100 mM of dimethyl sulfoxide solution were diluted in the buffer) and 50 μl of sample (10 μl of sample in organic solvent was diluted 5-fold in the buffer) were mixed in wells of 96 well-microliter plate. An absorbance of the mixture in wavelength at 415 nm was measured by a microplate reader (Corona Electric Co., Ibaraki, Japan). After the measurement, 25 μl of 6 μg/ml human sputum elastase (HSE) was added and the mixture was allowed to stand for 30 minutes at room temperature. Then, the absorbance at 415 nm was measured. Percent inhibition by drug was determined by 100×(1-"r" inhibitor present/"r" inhibitor absent), where "r" is absorbance after 30 minutes incubation minus absorbance before enzyme addition. Effect of inhibitors against porcine pancreas elastase (Type IV, 5 μg/ml final) was assayed similarly using N-succinyl-(Ala)3 -p-nitroanilide. HSE was obtained from Elastin Products Company Inc., Mo., U.S.A. All other substrates and protease were purchased from Sigma Chemicals Co.

[2] = target: T2, porcine pancreas elastase (Type IV) (Sus scrofa, UniProt P00772); assay: Protease inhibition assay (in vitro), porcine pancreas elastase; assay type: biochemical; settings: substrate N-succinyl-(Ala)3-p-nitroanilide, enzyme 5 μg/ml final
T2 construct: purchased Sigma Chemicals Co; host or cells: porcine pancreas (from the enzyme's name)
T2 sequence (P00772 27-266): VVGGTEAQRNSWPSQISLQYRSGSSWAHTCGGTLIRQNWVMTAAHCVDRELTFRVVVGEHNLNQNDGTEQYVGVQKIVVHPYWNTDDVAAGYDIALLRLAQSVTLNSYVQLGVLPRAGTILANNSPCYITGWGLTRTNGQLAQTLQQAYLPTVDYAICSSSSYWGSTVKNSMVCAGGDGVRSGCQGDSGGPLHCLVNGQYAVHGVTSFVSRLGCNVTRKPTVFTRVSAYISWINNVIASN
Method: as §1

[3] = test system: human sputum elastase-induced lung hemorrhage in hamsters; assay: Elastase-induced pulmonary damage (lung hemorrhage) in hamsters; assay type: in vivo, hamster; settings: 5 min predose; for Hemorrhage (OD541 nm): BAL hemoglobin 3 h after elastase; for ED50 elastase-induced lung hemorrhage: intratracheal
Method: Hamsters under pentobarbital anesthesia were used. Saline or saline-containing human sputum elastase was instilled intratracheally via a small incision in the ventral neck region using 1-ml syringe with a 27-gauge needle. After 3 hours, animals were sacrificed by CO2 asphyxiation, each animal's trachea was reexposed. The lungs were then laveged using a 2.5-ml aliquot of saline and then withdrawing the saline, yielding a final volume of approximately 1.5 ml bronchoalveolar lavage (BAC) fluid from each animal.
The cells of BAL fluid were collected by centrifugation and were then diluted with distilled water to disrupt, and the hemoglobin contents determined spectrophotometrically at 541 nm.
Test drugs were dissolved in saline or methyl cellulose, and instilled intratracheally in the same manner as used to instill elastase, at 5 minutes before instillation of elastase.

[4] = read-out: IC50 Porcine pancreas elastase

Molecule	pIC50 [1]	pIC50 [2, 4]	other results
CC(C)C(NC(=O)[C@@H]1CCCN1C(=O)[C@@H](NC(=O)Nc1ccc(C(=O)NCC(=O)N(C)C)cc1)C(C)C)C(=O)C(F)(F)F (mixture of isomers) [Example 24, 3(RS)-[[4-(Dimethylaminocarbonylmethylaminocarbonyl)phenylaminocarbonyl]-L-valyl-L-prolyl]amino-1,1,1-trifluoro-2-oxo-4-methylpentane]	5.85	5.42	
CC(C)C(NC(=O)[C@@H]1CCCN1C(=O)[C@@H](NC(=O)c1ccc(C(=O)NCc2ccc(N)cc2)cc1)C(C)C)C(=O)C(F)(F)F (mixture of isomers) [Example 18, 3(RS)-[[4-[(4-aminobenzyl)aminocarbonyl]phenylcarbonyl]-L-valyl-L-prolyl]amino-1,1,1-trifluoro-4-methyl-2-oxopentane]	6.21	5.42	
CC(C)C(NC(=O)[C@@H]1CCCN1C(=O)[C@@H](NC(=O)c1ccc(C(=O)NCCCC(=O)OCC(=O)c2ccccc2)cc1)C(C)C)C(=O)C(F)(F)F (mixture of isomers) [Example 3, 3(RS)-[[4-[(3-Benzoylmethoxycarbonyl)propylaminocarbonyl]phenylcarbonyl]-L-valyl-L-prolyl]amino-1,1,1-trifluoro-4-methyl-2-oxopentane]	6.01	5.06	
3(RS)-[[4-(Carboxymethylaminocarbonyl)phenylaminocarbonyl]-L-valyl-L-prolyl] amino-1,1,1-trifluoro-2-oxo-4-methylpentane [Example 23]	6.09	5.62	% inhibition of elastase-induced lung hemorrhage ([3]; 1 μg/site intratracheal): 16.0%; Hemorrhage (OD541 nm) ([3]; 1 μg/site intratracheal): 9.435 ± 0.941 OD541 nm; % inhibition of elastase-induced lung hemorrhage ([3]; 10 μg/site intratracheal): 75.6%; Hemorrhage (OD541 nm) ([3]; 10 μg/site intratracheal): 3.412 ± 1.31 OD541 nm; % inhibition of elastase-induced lung hemorrhage ([3]; 100 μg/site intratracheal): 102.1%; Hemorrhage (OD541 nm) ([3]; 100 μg/site intratracheal): 0.7258 ± 0.303 OD541 nm; ED50 elastase-induced lung hemorrhage [3]: 3.2 μg/site
CC(C)C(NC(=O)[C@@H]1CCCN1C(=O)[C@@H](NC(=O)c1ccc(C(=O)N[C@@H](CCC(=O)OCc2ccccc2)C(=O)OCc2ccccc2)cc1)C(C)C)C(=O)C(F)(F)F (mixture of isomers) [Example 10, 3(RS)-[[4-[[1(S),3-bis(Benzyloxycarbonyl)propyl]aminocarbonyl]phenylcarbonyl]-L-valyl-L-prolyl]amino-1,1,1-trifluoro-4-methyl-2-oxopentane]	5.10	3.51	
CC(C)C(NC(=O)CN(C(=O)[C@@H](NC(=O)c1ccc(C(=O)NCCN2CCOCC2)cc1)C(C)C)C1Cc2ccccc2C1)C(=O)C(F)(F)F (mixture of isomers) [Example 29, 3(RS)-[[4-[[2-(4-morpholino)ethyl]aminocarbonyl]phenylcarbonyl]-L-valyl-N-(2-indanyl)glycyl]amino-1,1,1-trifluoro-4-methyl-2-oxopentane]	5.62	4.72	% inhibition of elastase-induced lung hemorrhage ([3]; 1 μg/site intratracheal): 14.9%; Hemorrhage (OD541 nm) ([3]; 1 μg/site intratracheal): 12.05 ± 1.95 OD541 nm; % inhibition of elastase-induced lung hemorrhage ([3]; 10 μg/site intratracheal): 43.2%; Hemorrhage (OD541 nm) ([3]; 10 μg/site intratracheal): 8.155 ± 1.76 OD541 nm; % inhibition of elastase-induced lung hemorrhage ([3]; 100 μg/site intratracheal): 69.4%; Hemorrhage (OD541 nm) ([3]; 100 μg/site intratracheal): 4.545 ± 1.49 OD541 nm; ED50 elastase-induced lung hemorrhage [3]: 17.9 μg/site
CC(C)C(NC(=O)[C@@H]1CCCN1C(=O)[C@@H](NC(=O)c1ccc(C(=O)NCC(=O)O)cc1)C(C)C)C(=O)C(F)(F)F (single isomer, unassigned) [Example 15, 3(R or S)-[[4-(Carboxymethylaminocarbonyl)phenylcarbonyl]-L-valyl-L-prolyl]amino-1,1,1-trifluoro-2-oxo-4-methylpentane]	6.21		pIC50 ([2]; IC50 Porcine pancreas elastase): 5.70
CC(C)C(NC(=O)[C@@H]1CCCN1C(=O)[C@@H](NC(=O)c1ccc(C(=O)NCC(=O)O)cc1)C(C)C)C(=O)C(F)(F)F (single isomer, unassigned) [Example 16, 3(R or S)-[[4-(Carboxymethylaminocarbonyl)phenylcarbonyl]-L-valyl-L-prolyl]amino-1,1,1-trifluoro-2-oxo-4-methylpentane]	5.15		pIC50 ([2]; IC50 Porcine pancreas elastase): 4.52
CC(C)C(NC(=O)[C@@H]1CCCN1C(=O)[C@@H](NC(=O)c1ccc(C(=O)NCC(=O)OCc2ccccc2)cc1)C(C)C)C(=O)C(F)(F)F (mixture of isomers) [Example 1, 3(RS)-[[4-[(benzyloxycarbonyl)methylaminocarbonyl]-phenylcarbonyl]-L-valyl-L-prolyl]amino-1,1,1-trifluoro-4-methyl-2-oxopentane]	6.35	5.36	
CC(C)C(NC(=O)[C@@H]1CCCN1C(=O)[C@@H](NC(=O)c1ccc(C(=O)Nc2ccc(Cl)cc2)cc1)C(C)C)C(=O)C(F)(F)F (mixture of isomers) [Example 7, 3(RS)-[[4-[(4-Chlorophenyl)aminocarbonyl]phenylcarbonyl]-L-valyl-L-prolyl]amino-1,1,1-trifluoro-4-methyl-2-oxopentane]	6.49	5.42	
CC(C)C(NC(=O)[C@@H]1CCCN1C(=O)[C@@H](NC(=O)c1ccc(C(=O)NCc2ccc([N+](=O)[O-])cc2)cc1)C(C)C)C(=O)C(F)(F)F (mixture of isomers) [Example 6, 3(RS)-[[4-[(4-Nitrobenzyl)aminocarbonyl]phenylcarbonyl]-L-valyl-L-prolyl]amino-1,1,1-trifluoro-4-methyl-2-oxopentane]	6.37	5.16	
CC(C)C(NC(=O)[C@@H]1CCCN1C(=O)[C@@H](NC(=O)c1ccc(C(=O)NN2CCOCC2)cc1)C(C)C)C(=O)C(F)(F)F (mixture of isomers) [Example 4, 3(RS)-[[4-[(4-Morpholino)aminocarbonyl]-phenylcarbonyl]-L-valyl-L-prolyl]amino-1,1,1-trifluoro-4-methyl-2-oxopentane]	5.85	5.54	
CC(C)C(NC(=O)[C@@H]1CCCN1C(=O)[C@@H](NC(=O)c1ccc(C(=O)N[C@@H](CCC(=O)O)C(=O)O)cc1)C(C)C)C(=O)C(F)(F)F (mixture of isomers) [Example 17, 3(RS)-[[4-[(1(S),3-Dicarboxypropyl)aminocarbonyl]-phenylcarbonyl]-L-valyl-L-prolyl]amino-1,1,1-trifluoro-4-methyl-2-oxopentane]	5.96	5.47	
CC(C)C(NC(=O)[C@@H]1CCCN1C(=O)[C@@H](NC(=O)c1ccc(C(=O)N[C@H](Cc2ccccc2)C(=O)OCc2ccccc2)cc1)C(C)C)C(=O)C(F)(F)F (mixture of isomers) [Example 8, 3(RS)-[[4-[[(1(R)-Benzyloxycarbonyl)-2-phenyl]ethylaminocarbonyl]phenylcarbonyl]-L-valyl-L-prolyl]amino-1,1,1-trifluro-4-methyl-2-oxopentane]	6.06	4.80	
CC(C)C(NC(=O)[C@@H]1CCCN1C(=O)[C@@H](NC(=O)Nc1ccc(C(=O)NCC(=O)OCc2ccccc2)cc1)C(C)C)C(=O)C(F)(F)F (mixture of isomers) [Example 22, 3(RS)-[[4-(Benzyloxycarbonylmethylaminocarbonyl)phenylaminocarbonyl]-L-valyl-L-prolyl]amino-1,1,1-trifluoro-2-oxo-4-methylpentane]	6.17	5.31	
CC(C)C(NC(=O)[C@@H]1CCCN1C(=O)[C@@H](NC(=O)c1ccc(C(=O)N[C@@H](Cc2ccccc2)C(=O)OCc2ccccc2)cc1)C(C)C)C(=O)C(F)(F)F (mixture of isomers) [Example 9, 3(RS)-[[4-[[(1(S)-Benzyloxycarbonyl)-2-phenyl]ethylaminocarbonyl]phenylcarbonyl]-L-valyl-L-prolyl]amino-1,1,1-trifluoro-4-methyl-2-oxopentane]	6.06	5.02	
CC(C)C(NC(=O)[C@@H]1CCCN1C(=O)[C@@H](NC(=O)c1ccc(C(=O)NCc2ccc(Cl)cc2)cc1)C(C)C)C(=O)C(F)(F)F (mixture of isomers) [Example 5, 3(RS)-[[4-[(4-Chlorobenzyl)aminocarbonyl]-phenylcarbonyl]-L-valyl-L-prolyl]amino-1,1,1-trifluoro-4-methyl-2-oxopentane]	6.52	5.29	
